# Values of other authors, collected in patent publication US20040024065A1, “Novel metabolic targets and markers” (priority 2002, published 2004).
# Experiments:
# [1] = tested on: PEMT; settings: alcohol consumption, before the development of cirrhosis
# [2] = tested on: rat hepatocytes; settings: rat hepatocytes incubated with inhibitor
Structure (SMILES),activity of PEMT [1],"PC synthesis via methylation of PE derived from ethanolamine, inhibited [2]",amount of PE in the cells [2],"amount of PE secreted into the medium, increase [2] [%]","secretion of the apoproteins into VLDL, LDL, HDL fractions or fraction with density greater than 1.18 g/ml [2]"
CCO [alcohol],depresses,–,–,–,–
Nc1nccc2c1ncn2[C@@H]1O[C@H](CO)[C@@H](O)[C@H]1O [3-deazaadenosine],–,more than 95%,doubled,70,not affected
